{"source": "paper PMC6757289", "about": "“Design and Characterization of SGK3-PROTAC1, an Isoform Specific SGK3 Kinase PROTAC Degrader” (ACS Chemical Biology, 2019)", "key": {"S6K1": {"target": "S6K1 (Homo sapiens, UniProt P23443, T412E)", "sequence (P23443 1-421 T412E limits assumed)": "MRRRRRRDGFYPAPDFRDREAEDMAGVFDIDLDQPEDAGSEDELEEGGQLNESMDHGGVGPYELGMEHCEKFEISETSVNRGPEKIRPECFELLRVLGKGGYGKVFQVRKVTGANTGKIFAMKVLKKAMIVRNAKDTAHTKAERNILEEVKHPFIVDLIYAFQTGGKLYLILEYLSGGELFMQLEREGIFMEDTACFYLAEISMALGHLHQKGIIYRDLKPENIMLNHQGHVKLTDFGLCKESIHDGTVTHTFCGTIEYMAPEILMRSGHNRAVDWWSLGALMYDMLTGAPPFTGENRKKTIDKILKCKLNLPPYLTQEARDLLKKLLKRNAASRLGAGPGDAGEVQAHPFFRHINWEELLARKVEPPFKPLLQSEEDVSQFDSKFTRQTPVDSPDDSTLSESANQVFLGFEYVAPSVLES", "design": "method as in PMID 27481935", "details": "cited from earlier work"}, "ZR-75-1 cells": {"tested_on": "ZR-75-1 cells", "experiment": "Cell growth (confluency, Incucyte S3)", "assay_type": "cell-based", "details": "ZR-75-1; 1 μM GDC0941 or AZD5363; SGK3-PROTAC1/cisSGK3-PROTAC1 0.3 μM, 14H 3 μM", "description": "(§1) Figure 6 SGK3-PROTAC1-mediated degradation of SGK3 further inhibiting the growth of cancer cell lines treated with PI3K-Akt pathway inhibitors. CAMA-1 (A, C) and ZR-75-1 (B, D) were treated with compounds as indicated either as monotherapy or in combination, and confluency was measured on the Incucyte S3 every 4 h for up to 4 weeks.\n(§2) For growth assays, ZR-75-1 cells were seeded in 96-well plates at a density of 6000 cells/well and left to adhere overnight. Cells were then treated with compounds as described in the figure legends and imaged every 4 h on the Incucyte S3 (Essen Bioscience) for up to 4 weeks to give a measure of cell confluency. Media were refreshed every 4–5 days.\n(§3) Supplementary Figure S3. SGK3-PROTAC compounds have no effect on cell growth. CAMA-1 and ZR-75-1\n(§4) confluency was m easured every 4 h on Incucyte S3.\n(§5) (1 picture or pasted object on this page, not shown here)"}, "CAMA-1 cells": {"tested_on": "CAMA-1 cells", "experiment": "Cell growth (confluency, Incucyte S3)", "assay_type": "cell-based", "details": "CAMA-1; 1 μM GDC0941 or AZD5363; SGK3-PROTAC1/cisSGK3-PROTAC1 0.3 μM, 14H 3 μM", "description": "as §1, §2, §3, §4, §5"}, "[1]": {"tested_on": "phosphorylation of NDRG1 at Thr346", "experiment": "NDRG1 phosphorylation in HEK293 cells, immunoblot", "assay_type": "cell-based", "details": "HEK293, 8 h, 0.3 μM SGK3-PROTAC1, 1 μM 14H, 1 μM 308-R", "description": "Figure 3 Characterization of cellular activities of SGK3-PROTAC1 and cisSGK3-PROTAC1. (A) HEK293 cells were first treated for 8 h with 0.03–3 μM SGK3-PROTAC1 and cisSGK3-PROTAC1. One hour before lysis, cells were treated with 3 μM AZD5363. Lysates were subjected to immunoblot analysis with the indicated antibodies. […] Lysates were subjected to immunoblot analysis with the indicated antibodies. (C) HEK293 cells were treated for up to 48 h with SGK3-PROTAC1 (0.3 μM), and lysates were analyzed by immunoblot analysis using the indicated antibodies. (D) HEK293 cells were treated for 24 h with SGK3-PROTAC1. Cells were washed three times with DMEM to wash out the compound, and recovery of SGK3 expression protein was analyzed by immunoblot analysis. (E–G) As in A except that CAMA-1 (E), ZR-75-1 (F), and JIMT-1 (G) cells were employed rather than HEK293 cells.\nTo study the impact of SGK3-PROTAC1 on phosphorylation of a physiological substrate, we monitored phosphorylation of NDRG1 at Thr346.[37] This site is also phosphorylated by Akt; therefore we treated cells with increasing doses of SGK3-PROTAC1 and cisSGK3-PROTAC1 for 8 h, with the addition of an Akt inhibitor (3 μM AZD5363) 1 h before lysis, to remove the impact of Akt phosphorylation of NDRG1. […] Concentrations of cisSGK3-PROTAC1 of above 1 μM were required to lower NDRG1 phosphorylation. […] This is consistent with previous work in HEK293 cells showing that inhibition of both Akt and SGK3 is required to block NDRG1 phosphorylation.[8],[37]\nAll cell treatments were carried out as described in figure legends, to a final DMSO concentration of 0.1% (v/v). Lysates were quantified. Immunoblotting was performed using standard procedures, described in brief below. Lysate concentration was quantified by Bradford Assay, and 10 μg of lysate was loaded in the LDS sample buffer for SDS-PAGE electrophoresis on Novex 4–12% Bis–Tris gels. Proteins were electrophoretically transferred onto nitrocellulose membranes (Amersham Protran 0.45 μm NC; GE Healthcare) at 80 V for 80 min on ice in transfer buffer. Transferred membranes were blocked with 5% (w/v) nonfat dry milk dissolved in TBS-T [20 mM Tris/HCl, pH 7.5, 150 mM NaCl, and 0.1% (v/v) Tween 20] at RT for 30 min, before incubation with the primary antibody overnight at 4 °C. The signal was produced with near-infrared secondary antibodies and detected using a Licor Biosciences Odyssey System, and the signal was quantified in Image Studio Lite."}, "SGK3": {"target": "T1, SGK3 (Homo sapiens, UniProt Q96BR1)", "T1 sequence (Q96BR1 1-496)": "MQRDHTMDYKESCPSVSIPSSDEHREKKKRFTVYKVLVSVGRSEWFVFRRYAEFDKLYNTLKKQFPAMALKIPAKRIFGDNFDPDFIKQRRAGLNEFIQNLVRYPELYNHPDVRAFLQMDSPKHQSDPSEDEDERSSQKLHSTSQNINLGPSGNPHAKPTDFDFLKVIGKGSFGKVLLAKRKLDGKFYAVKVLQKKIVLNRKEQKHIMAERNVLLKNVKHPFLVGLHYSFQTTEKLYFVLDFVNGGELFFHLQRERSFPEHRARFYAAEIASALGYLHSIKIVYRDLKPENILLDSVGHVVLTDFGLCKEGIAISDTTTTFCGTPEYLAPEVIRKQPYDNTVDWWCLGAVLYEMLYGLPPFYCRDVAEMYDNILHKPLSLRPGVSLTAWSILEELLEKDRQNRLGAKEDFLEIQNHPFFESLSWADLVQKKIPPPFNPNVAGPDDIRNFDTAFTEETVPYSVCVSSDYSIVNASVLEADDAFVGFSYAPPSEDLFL", "design": "method as in PMID 27481935", "details": "cited from earlier work"}, "SGK1": {"target": "T2, SGK1 (Homo sapiens, UniProt O00141, S422D)", "T2 sequence (O00141 60-431 S422D limits assumed)": "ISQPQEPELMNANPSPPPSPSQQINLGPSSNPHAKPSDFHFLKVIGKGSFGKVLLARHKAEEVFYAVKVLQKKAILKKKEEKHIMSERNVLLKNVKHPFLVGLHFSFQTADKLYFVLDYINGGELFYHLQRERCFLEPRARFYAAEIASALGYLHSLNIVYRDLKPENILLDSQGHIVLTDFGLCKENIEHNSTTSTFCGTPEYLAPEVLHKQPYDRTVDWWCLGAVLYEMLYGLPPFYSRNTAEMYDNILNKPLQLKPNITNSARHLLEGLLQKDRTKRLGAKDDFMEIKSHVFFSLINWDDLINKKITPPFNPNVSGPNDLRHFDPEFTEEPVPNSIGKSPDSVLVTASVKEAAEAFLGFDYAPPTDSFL", "design": "method as in PMID 27481935", "details": "cited from earlier work"}}}
{"smiles": "Nc1n[nH]c2nc(-c3ccc(NS(=O)(=O)c4cc(Cl)ccc4Cl)cc3)ncc12", "note": "[14H, reference compound]", "values": [{"measurement": "IC50", "setting": "S6K1", "result": 76, "unit": "nM"}, {"measurement": "growth in combination with GDC0941 or AZD5363", "setting": "ZR-75-1 cells", "result": "further suppressed cell growth"}, {"measurement": "growth in combination with GDC0941 or AZD5363", "setting": "CAMA-1 cells", "result": "further suppressed cell growth"}, {"measurement": "pNDRG1 phosphorylation", "setting": "[1]; basal, no inhibition of Akt", "result": "minimal effect"}, {"measurement": "NDRG1 phosphorylation", "setting": "[1]; in the presence of 3 μM AZD5363", "result": "markedly suppressed"}, {"measurement": "IC50", "setting": "SGK3", "result": 4, "unit": "nM"}, {"measurement": "IC50", "setting": "SGK1", "result": 10, "unit": "nM"}]}
